Laboratory results published in PMC9530963, “A cathelicidin antimicrobial peptide from Hydrophis cyanocinctus inhibits Zika virus infection by downregulating expression of a viral entry factor” (The Journal of Biological Chemistry, 2022).

How the values were obtained:
ZIKV = experiment: Susceptibility of U251 cells to ZIKV (peptide pretreatment); assay type: cell-based, ZIKV strain PRVABC59; details: 1.25, 2.5, and 5 μM, 2 h before ZIKV MOI = 1; 24 h; Western blot
Experimental: Figure 5 Hc-CATH downregulates AXL in U251 cell.A, schematic diagram of B and C. B, U251 cells were seeded in 24-well plates (5 × 10^4 cells/well) and cultured in DMEM containing 2% FBS. Hc-CATH (1.25, 2.5, and 5 μM) or same volume of PBS (peptide solvent) was added to cells and incubated at 37 °C for 24 h. The level of AXL was tested by Western blot. C, U251 cells were seeded in 8-well cover slip chambers (5 × 10^4 cells/well) and cultured in DMEM containing 2% FBS. Hc-CATH (1.25, 2.5, and 5 μM) or PBS was added to cells and incubated at 37 °C for 24 h. The level of AXL was tested by immunofluorescence staining. The scale bar represents 50 μm. D, schematic diagram of E–G. E–G, U251 cells were seeded in 24-well plates (5 × 10^4 cells/well) and cultured in DMEM containing 2% FBS. Hc-CATH (1.25, 2.5, and 5 μM) or PBS was added to cells and incubated at 37 °C for 2 h. Cells were washed with PBS and incubated with ZIKV (MOI = 1). After incubation at 37 °C for 2 h, cells were washed with PBS and cultured in DMEM containing 2% FBS.
Vero, A549, or U251 cells were incubated with peptide or PBS at 37 °C for 2 h. […]
The effect of Hc-CATH on AXL was further confirmed in A549 and U251 cells. A549 or U251 cells were incubated with Hc-CATH (1.25, 2.5, and 5 μM) or PBS at 37 °C for 24 h, and the level of AXL was detected by WB and IF, respectively. […]

COX-2 = experiment: Enzymatic activity of COX-2 (inhibitor screening kit); assay type: biochemical; details: 10 μM, incubated with COX-2 at 37 °C for 10 min
Experimental: Figure 6 Hc-CATH downregulates AXL via inhibiting COX-2/PGE2/AC/PKA pathway.A, effect of Hc-CATH on COX-2 protein level. A549 cells were incubated with Hc-CATH (1.25, 2.5, or 5 μM) or PBS (solvent of Hc-CATH) at 37 °C for 24 h, COX-2 protein level was examined by Western blot (upper panel) and analyzed by ImageJ (lower panel). B, effect of Hc-CATH on the enzymatic activity of COX-2. Hc-CATH (1.25, 2.5, 5, and 10 μM) or PBS was incubated with COX-2. After incubation at 37 °C for 10 min, the enzymatic activity of COX-2 was detected by enzyme activity inhibitor screening kit. Celecoxib (COX-2 inhibitor, 100 nM) was used as positive control. C, effect of Hc-CATH on PGE2 production. A549 cells were incubated with Hc-CATH (5 μM) at 37 °C. After incubation for 24 h, the level of PGE2 in the cell supernatant was detected by ELISA. D and E, effect of AC (D) and PKA (E) on Hc-CATH-induced AXL downregulation. […] After incubation for 24 h, AXL protein level was examined by Western blot (upper panel of D and E) and analyzed by ImageJ (lower panel of D and E). ns, not significant, ∗∗p < 0.01, and ∗∗∗p < 0.001.
The effect of Hc-CATH on the enzymatic activity of COX-2 was detected by enzyme activity inhibitor screening kit. […] After incubation at 37 °C for 10 min, the enzymatic activity of COX-2 was detected by the kit. […]

[1] = design: method as in PMID 26013823; details: cited from earlier work
bacteria = tested on: bacteria; design: method as in PMID 26013823; details: cited from earlier work

In the case of “KFFKRLLKSVRRAVKKFRKKPRLIGLSTLL [Hc-CATH, cathelicidin antimicrobial peptide identified from the sea snake Hydrophis cyanocinctus]”, the “susceptibility of U251 cells to ZIKV (NS3 protein)” value (ZIKV) is given as “decreased the susceptibility”, the “inhibitory rate against COX-2 activity” value (COX-2) is given as “about 80%” and the anti-inflammatory activity [1] is given as “potent anti-inflammatory activity”. For the same sequence, the antibacterial spectrum (bacteria) was “broad antibacterial spectrum”.
